pIC50: −log10 of the molar value. A value given as a limit tells only on which side of the number the result lay.

T1 sequence (Q15858 whole entry): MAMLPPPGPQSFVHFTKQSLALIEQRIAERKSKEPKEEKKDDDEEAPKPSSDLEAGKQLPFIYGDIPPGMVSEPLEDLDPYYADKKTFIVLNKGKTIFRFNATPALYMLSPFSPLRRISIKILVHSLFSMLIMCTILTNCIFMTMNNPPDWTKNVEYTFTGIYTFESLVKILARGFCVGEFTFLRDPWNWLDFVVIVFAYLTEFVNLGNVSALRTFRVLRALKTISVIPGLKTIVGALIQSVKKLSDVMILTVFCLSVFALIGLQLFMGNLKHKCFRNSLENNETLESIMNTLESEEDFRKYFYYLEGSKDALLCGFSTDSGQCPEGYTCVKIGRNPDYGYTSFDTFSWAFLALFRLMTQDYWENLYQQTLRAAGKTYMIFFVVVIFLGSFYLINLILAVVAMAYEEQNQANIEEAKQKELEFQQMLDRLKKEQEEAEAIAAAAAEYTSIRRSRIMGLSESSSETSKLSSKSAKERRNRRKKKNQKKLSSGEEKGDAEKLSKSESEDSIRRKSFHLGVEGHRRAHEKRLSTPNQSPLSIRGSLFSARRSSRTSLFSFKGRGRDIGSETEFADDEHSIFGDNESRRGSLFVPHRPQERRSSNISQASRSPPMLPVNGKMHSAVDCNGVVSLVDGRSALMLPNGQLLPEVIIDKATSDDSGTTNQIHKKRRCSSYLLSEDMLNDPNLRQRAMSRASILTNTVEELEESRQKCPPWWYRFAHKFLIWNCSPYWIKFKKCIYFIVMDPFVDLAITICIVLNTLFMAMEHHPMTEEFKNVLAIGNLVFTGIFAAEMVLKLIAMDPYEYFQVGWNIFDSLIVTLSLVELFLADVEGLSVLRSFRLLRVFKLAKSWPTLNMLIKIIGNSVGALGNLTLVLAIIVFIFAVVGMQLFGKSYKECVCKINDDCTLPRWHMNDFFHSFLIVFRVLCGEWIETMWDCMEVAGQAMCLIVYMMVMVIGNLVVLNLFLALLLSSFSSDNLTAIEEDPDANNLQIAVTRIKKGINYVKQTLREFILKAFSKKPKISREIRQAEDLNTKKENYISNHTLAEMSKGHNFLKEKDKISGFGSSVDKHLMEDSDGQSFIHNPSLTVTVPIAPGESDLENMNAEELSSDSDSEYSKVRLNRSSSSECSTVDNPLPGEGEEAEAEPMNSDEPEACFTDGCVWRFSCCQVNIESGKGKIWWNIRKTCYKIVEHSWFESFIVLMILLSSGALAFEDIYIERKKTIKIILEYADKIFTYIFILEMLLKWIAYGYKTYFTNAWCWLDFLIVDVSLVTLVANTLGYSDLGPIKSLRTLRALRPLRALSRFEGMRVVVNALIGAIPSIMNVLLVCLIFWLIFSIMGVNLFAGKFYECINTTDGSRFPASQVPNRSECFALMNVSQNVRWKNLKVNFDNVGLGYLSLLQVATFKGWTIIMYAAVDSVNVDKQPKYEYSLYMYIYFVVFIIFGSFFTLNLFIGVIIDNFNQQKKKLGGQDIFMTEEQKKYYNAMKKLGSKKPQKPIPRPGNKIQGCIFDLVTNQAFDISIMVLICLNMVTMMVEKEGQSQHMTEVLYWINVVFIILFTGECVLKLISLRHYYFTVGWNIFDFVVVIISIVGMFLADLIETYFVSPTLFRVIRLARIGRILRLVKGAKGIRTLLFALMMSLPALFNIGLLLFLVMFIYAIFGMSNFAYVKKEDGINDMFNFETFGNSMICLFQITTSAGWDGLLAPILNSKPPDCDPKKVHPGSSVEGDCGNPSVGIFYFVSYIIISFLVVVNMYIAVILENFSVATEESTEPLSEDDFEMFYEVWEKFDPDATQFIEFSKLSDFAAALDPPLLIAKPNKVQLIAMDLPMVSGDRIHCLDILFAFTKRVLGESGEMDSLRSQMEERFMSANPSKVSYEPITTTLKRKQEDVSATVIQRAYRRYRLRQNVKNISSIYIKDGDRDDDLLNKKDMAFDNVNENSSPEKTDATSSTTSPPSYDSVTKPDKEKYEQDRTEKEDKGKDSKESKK

The assay addresses T1, Nav1.7 (or SCN9A) channel (Homo sapiens, UniProt Q15858).
T1 construct: expressed in transfected cells
In words: Nav1.7 PatchXpress 7000 automated electrophysiology assay (HEK cells stably expressing hSCN9A). The format is cell-based. To be noted: voltage-clamped at V1/2 of inactivation, read-out: Nav1.7 EIC50. In outline: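 Automated whole-cell clamp (PatchXpress) of HEK cells stably expressing hSCN9A, at 22-24 °C, in extracellular buffer at pH 7.4. Cells were held at the measured V1/2 of inactivation, then stepped to 0 mV for 20 ms. Single-concentration % inhibition gave EIC50 = concentration × (100 − %inhibition)/%inhibition, excluding <20% or >80%.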
For the compound `CS(=O)(=O)NC(=O)c1ccc(Sc2ccc(Cl)c(Cl)c2)cc1` [Example 317, 4-[(3,4-Dichlorophenyl)sulfanyl]-N-(methylsulfonyl)benzamide], the pIC50 is 5.46.

Turning to `Cc1cc(C)cc(Oc2ccc(C(=O)NS(C)(=O)=O)cc2)c1` [Example 174, 4-(3,5-dimethylphenoxy)-N-(methylsulfonyl)benzamide], the pIC50 is 4.70.

`CCc1cc(F)ccc1Oc1ccc(C(=O)NS(C)(=O)=O)cc1C#N` [Example 22, 3-cyano-4-(2-ethyl-4-fluorophenoxy)-N-(methylsulfonyl)benzamide]: the pIC50 is 5.28. For `CS(=O)(=O)NC(=O)c1cc(F)c(Oc2cccc(Cl)c2)cc1F` [Example 156, 4-(3-chlorophenoxy)-2,5-difluoro-N-(methylsulfonyl)benzamide], the pIC50 was less than 5.52. The result for `CS(=O)(=O)NC(=O)c1cc(F)c(Oc2cc(F)ccc2F)cc1F` [Example 89, 4-(2,5-difluorophenoxy)-2,5-difluoro-N-(methylsulfonyl)benzamide] reads less than 5.52. The result for `Cc1cc(F)ccc1Oc1ccc(C(=O)NS(C)(=O)=O)cc1` [Example 201, 4-(4-fluoro-2-methylphenoxy)-N-(methylsulfonyl)benzamide] reads 4.70; that for `CS(=O)(=O)NC(=O)c1cc(F)c(Oc2ccc(C(F)(F)F)c(Cl)c2)cc1F` [Example 33, 4-(3-chloro-4-(trifluoromethyl)phenoxy)-2,5-difluoro-N-(methylsulfonyl)benzamide], 6.30; that for `CS(=O)(=O)NC(=O)c1cc(F)c(Oc2ccc(Cl)c(C(F)(F)F)c2)c(F)c1` [Example 45, 4-(4-chloro-3-(trifluoromethyl)phenoxy)-3,5-difluoro-N-(methylsulfonyl)benzamide], 5.96.

In the case of `COc1ccc(OC(F)(F)F)cc1Oc1cc(F)c(C(=O)NS(C)(=O)=O)cc1F` [Example 314, 2,5-difluoro-4-[2-methoxy-5-(trifluoromethoxy)phenoxy]-N-(methylsulfonyl)benzamide], the pIC50 was 5.96. Turning to `CS(=O)(=O)NC(=O)c1ccc(Oc2ccc(C(F)(F)F)cc2-c2ccnnc2)cc1` [Example 50, N-(methylsulfonyl)-4-(2-(pyridazin-4-yl)-4-(trifluoromethyl)phenoxy)benzamide], the pIC50 was less than 5.52. The result for `COc1cccc(Oc2ccc(C(=O)NS(C)(=O)=O)cc2C#N)c1` [Example 277, 3-cyano-4-(3-methoxyphenoxy)-N-(methylsulfonyl)benzamide] reads 5.25; that for `COc1cc(Cl)ccc1Oc1ccc(C(=O)NS(C)(=O)=O)c(OC)c1` [Example 40, 4-(4-chloro-2-methoxyphenoxy)-2-methoxy-N-(methylsulfonyl)benzamide], 4.60.

With `CS(=O)(=O)NC(=O)c1ccc(Oc2ccccc2Cl)cc1` [Example 164, 4-(2-chlorophenoxy)-N-(methylsulfonyl)benzamide], the pIC50 was less than 5.00. The result for `Cc1ccc(F)c(Oc2ccc(C(=O)NS(C)(=O)=O)cc2)c1` [Example 205, 4-(2-fluoro-5-methylphenoxy)-N-(methylsulfonyl)benzamide] reads 4.82. The result for `COc1cccc(Oc2cc(F)c(C(=O)NS(C)(=O)=O)cc2Cl)c1` [Example 289, 5-chloro-2-fluoro-4-(3-methoxyphenoxy)-N-(methylsulfonyl)benzamide] reads 5.92; that for `COc1cc(Cl)ccc1Cc1cc(F)c(C(=O)NS(C)(=O)=O)cc1F` [Example 319, 4-(4-Chloro-2-methoxybenzyl)-2,5-difluoro-N-(methylsulfonyl)benzamide], 5.60; that for `CS(=O)(=O)NC(=O)c1cc(F)c(Oc2ccc(OC(F)(F)F)cc2)cc1F` [Example 100, 2,5-difluoro-N-(methylsulfonyl)-4-[4-(trifluoromethoxy)phenoxy]benzamide], 5.96. As for `CS(=O)(=O)NC(=O)c1cc(F)c(Oc2ccc(F)cc2C2CC2)cc1F` [Example 126, 4-(2-cyclopropyl-4-fluorophenoxy)-2,5-difluoro-N-(methylsulfonyl)benzamide], the figure is less than 6.00; as for `COc1cc(Cl)c(Cl)cc1Oc1cc(F)c(C(=O)NS(C)(=O)=O)cc1F` [Example 70, 4-(4,5-dichloro-2-methoxyphenoxy)-2,5-difluoro-N-(methylsulfonyl)benzamide], 5.55; as for `Cc1ccc(Oc2ccc(C(=O)NS(C)(=O)=O)cc2)cc1` [Example 304, 4-(4-methylphenoxy)-N-(methylsulfonyl)benzamide], 5.06. Regarding `CS(=O)(=O)NC(=O)c1ccc(Oc2cccc(F)c2)c(Cl)c1` [Example 262, 3-chloro-4-(3-fluorophenoxy)-N-(methylsulfonyl)benzamide], the pIC50 is 5.96. The result for `COc1cc(OC(F)(F)F)ccc1Oc1cc(F)c(C(=O)NS(C)(=O)=O)cc1F` [Example 72, 2,5-difluoro-4-[2-methoxy-4-(trifluoromethoxy)phenoxy]-N-(methylsulfonyl)benzamide] reads less than 6.00. The result for `CS(=O)(=O)NC(=O)c1cc(F)c(Oc2ccccc2C(F)(F)F)cc1F` [Example 113, 2,5-difluoro-N-(methylsulfonyl)-4-[2-(trifluoromethyl)phenoxy]benzamide] reads less than 5.52; that for `CS(=O)(=O)NC(=O)c1cc(F)c(Oc2ccc(F)cc2C#N)cc1F` [Example 130, 4-(2-cyano-4-fluorophenoxy)-2,5-difluoro-N-(methylsulfonyl)benzamide], less than 5.52; that for `Cc1ccccc1Oc1cc(F)c(C(=O)NS(C)(=O)=O)cc1F` [Example 111, 2,5-difluoro-4-(2-methylphenoxy)-N-(methylsulfonyl)benzamide], less than 5.52. As for `Cc1ccccc1Oc1ccc(C(=O)NS(C)(=O)=O)cc1` [Example 191, 4-(2-methylphenoxy)-N-(methylsulfonyl)benzamide], the figure is less than 5.00; as for `CS(=O)(=O)NC(=O)c1ccc(Oc2ccccc2OCc2ccccc2)cc1` [Example 176, 4-[2-(benzyloxy)phenoxy]-N-(methylsulfonyl)benzamide], less than 5.00. Take `CS(=O)(=O)NC(=O)c1cc(Cl)c(Oc2ccc(C(F)(F)F)c(Cl)c2)cc1F` [Example 9, 5-chloro-4-(3-chloro-4-(trifluoromethyl)phenoxy)-2-fluoro-N-(methylsulfonyl)benzamide]: the pIC50 was 7.33. The result for `COc1c(C(=O)NS(C)(=O)=O)ccc(Oc2cccc(Cl)c2)c1F` [Example 225, 4-(3-chlorophenoxy)-3-fluoro-2-methoxy-N-(methylsulfonyl)benzamide] reads 5.48; that for `CCc1cc(F)ccc1Oc1ccc(C(=O)NS(C)(=O)=O)cc1F` [Example 20, 4-(2-ethyl-4-fluorophenoxy)-3-fluoro-N-(methylsulfonyl)benzamide], 5.27; that for `CCS(=O)(=O)NC(=O)c1ccc(Oc2ccc(F)cc2)cc1` [Example 305, N-(ethylsulfonyl)-4-(4-fluorophenoxy)benzamide], 5.19. As for `Cc1ccc(Oc2ccc(C(=O)NS(C)(=O)=O)cc2Cl)cc1` [Example 215, 3-chloro-4-(4-methylphenoxy)-N-(methylsulfonyl)benzamide], the pIC50 is 5.89. The result for `CS(=O)(=O)NC(=O)c1cc(F)c(Oc2ccc(F)cc2Cl)cc1F` [Example 120, 4-(2-chloro-4-fluorophenoxy)-2,5-difluoro-N-(methylsulfonyl)benzamide] reads less than 5.52; that for `COc1c(C(=O)NS(C)(=O)=O)ccc(Oc2ccc(Cl)c(C)c2)c1F` [Example 230, 4-(4-chloro-3-methylphenoxy)-3-fluoro-2-methoxy-N-(methylsulfonyl)benzamide], 6.07. `COc1cc(C(=O)NS(C)(=O)=O)ccc1Oc1ccc(Cl)c(C(F)(F)F)c1` [Example 59, 4-[4-chloro-3-(trifluoromethyl)phenoxy]-3-methoxy-N-(methylsulfonyl)benzamide]: the pIC50 is 5.40. For `CS(=O)(=O)NC(=O)c1ccc(Oc2ccc(-n3ccnc3)cc2)cc1` [Example 311, 4-[4-(1H-imidazol-1-yl)phenoxy]-N-(methylsulfonyl)benzamide], the pIC50 is less than 5.52. In the case of `CS(=O)(=O)NC(=O)c1cc(F)c(Oc2ccc(Cl)cc2Cl)cc1F` [Example 123, 4-(2,4-dichlorophenoxy)-2,5-difluoro-N-(methylsulfonyl)benzamide], the pIC50 was 5.70. As for `Cn1nccc1-c1cc(Cl)ccc1Oc1ccc(C(=O)NS(C)(=O)=O)cc1C#N` [Example 303, 4-[4-chloro-2-(1-methyl-1H-pyrazol-5-yl)phenoxy]-3-cyano-N-(methylsulfonyl)benzamide], the figure is less than 5.52; as for `CS(=O)(=O)NC(=O)c1ccc(Oc2ccc(C#N)cc2)c(Cl)c1` [Example 270, 3-chloro-4-(4-cyanophenoxy)-N-(methylsulfonyl)benzamide], 5.43.

Turning to `CS(=O)(=O)NC(=O)c1cc(F)c(Oc2cccc(Cl)c2F)cc1F` [Example 149, 4-(3-chloro-2-fluorophenoxy)-2,5-difluoro-N-(methylsulfonyl)benzamide], the pIC50 is less than 6.00. As for `Cc1cc(C(=O)NS(C)(=O)=O)ccc1Oc1ccc(Cl)c(Cl)c1` [Example 81, 4-(3,4-dichlorophenoxy)-3-methyl-N-(methylsulfonyl)benzamide], the figure is 6.64; as for `COc1ccc(Oc2cc(F)c(C(=O)NS(C)(=O)=O)cc2F)c(Cl)c1` [Example 146, 4-(2-chloro-4-methoxyphenoxy)-2,5-difluoro-N-(methylsulfonyl)benzamide], less than 5.52; as for `COc1cc(Cl)ccc1Oc1cc(F)c(C(=O)NS(C)(=O)=O)cc1Cl` [Example 52, 5-chloro-4-(4-chloro-2-methoxyphenoxy)-2-fluoro-N-(methylsulfonyl)benzamide], 6.33.

These data come from patent US8685977B2, “Chemical compounds” (Pfizer Limited, priority 2010, dated 2014).
